Measurements: US6399672B1, “Oil soluble metal-containing compounds, compositions and methods” (Sartomer Technologies Co., Inc., priority 1999, dated 2002)

Experiment: Solubility of Zn salts in organic compounds
Conditions: mixed with organic monomers listed per example in b131-b162 (glycol di(meth)acrylates, trimethylolpropane triacrylate etc.)
From the text: The organic compounds tested with the products of each of the preceding examples were as follows: […]

Substance: zinc dimethacrylate
- solubility in organic compounds: insoluble
